Measured values published in ChEMBL document CHEMBL2440076, “New triarylpyrazoles as broad-spectrum anticancer agents: design, synthesis, and biological evaluation” (Eur J Med Chem, 2013).

Columns and labels:
Assay type in all cases: functional
OVCAR-3 = test: Growth inhibition of human OVCAR3 cells assessed as cell growth at 3X10'-7 M after 48 hrs by sulforhodamine B assay; conditions: OVCAR-3, 48 h, read-out: Activity
SK-MEL-5 = test: Growth inhibition of human SK-MEL-5 cells assessed as cell growth at 3X10'-7 M after 48 hrs by sulforhodamine B assay; conditions: SK-MEL-5, 48 h, read-out: Activity
SK-MEL-2 = test: Growth inhibition of human SK-MEL-2 cells assessed as cell growth at 3X10'-7 M after 48 hrs by sulforhodamine B assay; conditions: SK-MEL-2, 48 h, read-out: Activity
SNB-19 = test: Growth inhibition of human SNB19 cells assessed as cell growth at 3X10'-7 M after 48 hrs by sulforhodamine B assay; conditions: SNB-19, 48 h, read-out: Activity
A549 = test: Growth inhibition of human A549/ATCC cells assessed as cell growth at 3X10'-7 M after 48 hrs by sulforhodamine B assay; conditions: A549, 48 h, read-out: Activity
MDA-MB-231 [1] = test: Growth inhibition of human MDA-MB-231 cells assessed as cell growth at 3X10'-8 M after 48 hrs by sulforhodamine B assay; conditions: MDA-MB-231, 48 h, read-out: Activity
UO-31 = test: Growth inhibition of human UO31 cells assessed as cell growth at 3X10'-8 M after 48 hrs by sulforhodamine B assay; conditions: UO-31, 48 h, read-out: Activity
SK-OV-3 = test: Growth inhibition of human SKOV3 cells assessed as cell growth at 3X10'-8 M after 48 hrs by sulforhodamine B assay; conditions: SK-OV-3, 48 h, read-out: Activity
BT-549 [2] = test: Growth inhibition of human BT549 cells assessed as cell growth at 3X10'-5 M after 48 hrs by sulforhodamine B assay; conditions: BT-549, 48 h, read-out: Activity
[3] = Growth inhibition of human Hs 578T cells assessed as cell growth at 3X10'-5 M after 48 hrs by sulforhodamine B assay; conditions: read-out: Activity
CCRF-CEM [4] = test: Growth inhibition of human CCRF-CEM cells assessed as cell growth at 3X10'-9 M after 48 hrs by sulforhodamine B assay; conditions: read-out: Activity
M14 = test: Growth inhibition of human M14 cells assessed as cell growth at 3X10'-8 M after 48 hrs by sulforhodamine B assay; conditions: M14, 48 h, read-out: Activity
Malme-3M = test: Growth inhibition of human MALME-3M cells assessed as cell growth at 3X10'-8 M after 48 hrs by sulforhodamine B assay; conditions: read-out: Activity
SNB-75 [5] = test: Growth inhibition of human SNB75 cells assessed as cell growth at 3X10'-8 M after 48 hrs by sulforhodamine B assay; conditions: SNB-75, 48 h, read-out: Activity
SF-268 [6] = test: Growth inhibition of human SF268 cells assessed as cell growth at 3X10'-8 M after 48 hrs by sulforhodamine B assay; conditions: SF-268, 48 h, read-out: Activity
[7] = Growth inhibition of human HCC2998 cells assessed as cell growth at 3X10'-8 M after 48 hrs by sulforhodamine B assay; conditions: HCC 2998, 48 h, read-out: Activity
NCI-H522 = test: Growth inhibition of human NCI-H522 cells assessed as cell growth at 3X10'-8 M after 48 hrs by sulforhodamine B assay; conditions: NCI-H522, 48 h, read-out: Activity
NCI-H23 = test: Growth inhibition of human NCI-H23 cells assessed as cell growth at 3X10'-8 M after 48 hrs by sulforhodamine B assay; conditions: NCI-H23, 48 h, read-out: Activity
MOLT-4 = test: Growth inhibition of human MOLT4 cells assessed as cell growth at 3X10'-8 M after 48 hrs by sulforhodamine B assay; conditions: MOLT-4, 48 h, read-out: Activity
CCRF-CEM [8] = test: Growth inhibition of human CCRF-CEM cells assessed as cell growth at 3X10'-8 M after 48 hrs by sulforhodamine B assay; conditions: read-out: Activity
BT-549 [9] = test: Growth inhibition of human BT549 cells assessed as cell growth at 3X10'-9 M after 48 hrs by sulforhodamine B assay; conditions: BT-549, 48 h, read-out: Activity
PC-3 = test: Growth inhibition of human PC3 cells assessed as cell growth at 3X10'-5 M after 48 hrs by sulforhodamine B assay; conditions: PC-3, 48 h, read-out: Activity
786-0 = test: Growth inhibition of human 786-0 cells assessed as cell growth at 3X10'-5 M after 48 hrs by sulforhodamine B assay; conditions: 786-0, 48 h, read-out: Activity
OVCAR-5 = test: Growth inhibition of human OVCAR5 cells assessed as cell growth at 3X10'-5 M after 48 hrs by sulforhodamine B assay; conditions: OVCAR-5, 48 h, read-out: Activity
MCF7 = test: Growth inhibition of human MCF7 cells assessed as cell growth at 3X10'-9 M after 48 hrs by sulforhodamine B assay; conditions: MCF7, 48 h, read-out: Activity
DU-145 [10] = test: Growth inhibition of human DU145 cells assessed as cell growth at 3X10'-9 M after 48 hrs by sulforhodamine B assay; conditions: DU-145, 48 h, read-out: Activity
SNB-75 [11] = test: Growth inhibition of human SNB75 cells assessed as cell growth at 3X10'-5 M after 48 hrs by sulforhodamine B assay; conditions: SNB-75, 48 h, read-out: Activity
NCI-H460 = test: Growth inhibition of human NCI-H460 cells assessed as cell growth at 3X10'-5 M after 48 hrs by sulforhodamine B assay; conditions: NCI-H460, 48 h, read-out: Activity
RPMI-8226 = test: Growth inhibition of human RPMI8226 cells assessed as cell growth at 3X10'-5 M after 48 hrs by sulforhodamine B assay; conditions: RPMI-8226, 48 h, read-out: Activity
SN12C = test: Growth inhibition of human SN12C cells assessed as cell growth at 3X10'-6 M after 48 hrs by sulforhodamine B assay; conditions: read-out: Activity
SF-268 [12] = test: Growth inhibition of human SF268 cells assessed as cell growth at 3X10'-9 M after 48 hrs by sulforhodamine B assay; conditions: SF-268, 48 h, read-out: Activity
LOX IMVI = test: Growth inhibition of human LOXIMVI cells assessed as cell growth at 3X10'-6 M after 48 hrs by sulforhodamine B assay; conditions: read-out: Activity
KM12 = test: Growth inhibition of human KM12 cells assessed as cell growth at 3X10'-6 M after 48 hrs by sulforhodamine B assay; conditions: KM12, 48 h, read-out: Activity
HT-29 = test: Growth inhibition of human HT-29 cells assessed as cell growth at 3X10'-6 M after 48 hrs by sulforhodamine B assay; conditions: HT-29, 48 h, read-out: Activity
T47D = test: Growth inhibition of human T47D cells assessed as cell growth at 3X10'-7 M after 48 hrs by sulforhodamine B assay; conditions: read-out: Activity
MDA-MB-231 [13] = test: Growth inhibition of human MDA-MB-231 cells assessed as cell growth at 3X10'-7 M after 48 hrs by sulforhodamine B assay; conditions: MDA-MB-231, 48 h, read-out: Activity
DU-145 [14] = test: Growth inhibition of human DU145 cells assessed as cell growth at 3X10'-7 M after 48 hrs by sulforhodamine B assay; conditions: DU-145, 48 h, read-out: Activity

Row | Structure (SMILES) | growth at 0.3 µM (OVCAR-3) | growth at 0.3 µM (SK-MEL-5) | growth at 0.3 µM (SK-MEL-2) | growth at 0.3 µM (SNB-19) | growth at 0.3 µM (A549) | growth at 0.03 µM (MDA-MB-231 [1]) | growth at 0.03 µM (UO-31) | growth at 0.03 µM (SK-OV-3) | growth at 30 µM (BT-549 [2]) | growth at 30 µM [3] | growth at 0.003 µM (CCRF-CEM [4]) | growth at 0.03 µM (M14) | growth at 0.03 µM (Malme-3M) | growth at 0.03 µM (SNB-75 [5]) | growth at 0.03 µM (SF-268 [6]) | growth at 0.03 µM [7] | growth at 0.03 µM (NCI-H522) | growth at 0.03 µM (NCI-H23) | growth at 0.03 µM (MOLT-4) | growth at 0.03 µM (CCRF-CEM [8]) | also measured
1 | O=C(Nc1cccc(-n2cc(-c3ccncc3)c(-c3ccc(Cl)c(O)c3)n2)c1)Nc1ccc(Cl)c(Cl)c1 | 103% | 90% | 111% | 101% | 85% | 100% | 92% | 99% | -12% | -21% | 91% | 94% | 89% | 92% | 92% | 104% | 94% | 93% | 99% | 98% | growth at 0.003 µM (BT-549 [9]): 99%; growth at 30 µM (PC-3): 1%; growth at 30 µM (786-0): 5%; growth at 30 µM (OVCAR-5): 1%; growth at 0.003 µM (MCF7): 97%; growth at 0.003 µM (DU-145 [10]): 104%; growth at 30 µM (SNB-75 [11]): -15%; growth at 30 µM (NCI-H460): -58%; growth at 30 µM (RPMI-8226): 3%; growth at 3 µM (SN12C): 17%; growth at 0.003 µM (SF-268 [12]): 93%; growth at 3 µM (LOX IMVI): 3%; growth at 3 µM (KM12): 9%; growth at 3 µM (HT-29): 60%; growth at 0.3 µM (T47D): 100%; growth at 0.3 µM (MDA-MB-231 [13]): 94%; growth at 0.3 µM (DU-145 [14]): 105%
2 | O=C(Nc1cccc(-n2cc(-c3ccncc3)c(-c3ccc(Cl)c(O)c3)n2)c1)Nc1cccc(C(F)(F)F)c1 | 92% | 99% | 107% | 96% | 93% | 101% | 85% | 96% | -18% | 11% | 97% | 98% | 82% | 94% | 94% | 97% | 90% | 94% | 96% | 96% | growth at 0.003 µM (BT-549 [9]): 91%; growth at 30 µM (PC-3): -3%; growth at 30 µM (786-0): 7%; growth at 30 µM (OVCAR-5): 22%; growth at 0.003 µM (MCF7): 91%; growth at 0.003 µM (DU-145 [10]): 101%; growth at 30 µM (SNB-75 [11]): 1%; growth at 30 µM (NCI-H460): -1%; growth at 30 µM (RPMI-8226): 5%; growth at 3 µM (SN12C): 37%; growth at 0.003 µM (SF-268 [12]): 95%; growth at 3 µM (LOX IMVI): 44%; growth at 3 µM (KM12): 20%; growth at 3 µM (HT-29): 96%; growth at 0.3 µM (T47D): 97%; growth at 0.3 µM (MDA-MB-231 [13]): 95%; growth at 0.3 µM (DU-145 [14]): 97%
3 | O=C(Nc1cccc(-n2cc(-c3ccncc3)c(-c3ccc(Cl)c(O)c3)n2)c1)Nc1ccc(Cl)c(C(F)(F)F)c1 | 101% | 89% | 108% | 98% | 86% | 96% | 95% | 102% | -19% | -8% | 98% | 101% | 94% | 92% | 103% | 102% | 101% | 100% | 116% | 97% | growth at 0.003 µM (BT-549 [9]): 102%; growth at 30 µM (PC-3): -19%; growth at 30 µM (786-0): 1%; growth at 30 µM (OVCAR-5): -14%; growth at 0.003 µM (MCF7): 93%; growth at 0.003 µM (DU-145 [10]): 101%; growth at 30 µM (SNB-75 [11]): -31%; growth at 30 µM (NCI-H460): -41%; growth at 30 µM (RPMI-8226): -15%; growth at 3 µM (SN12C): 15%; growth at 0.003 µM (SF-268 [12]): 101%; growth at 3 µM (LOX IMVI): -71%; growth at 3 µM (KM12): 2%; growth at 3 µM (HT-29): 21%; growth at 0.3 µM (T47D): 95%; growth at 0.3 µM (MDA-MB-231 [13]): 69%; growth at 0.3 µM (DU-145 [14]): 97%
